The values below come from US8324188B2, “Combinations of ET-18-O-CH3and anti-cancer agents for the treatment of cancer” (priority 2006, dated 2012).

For orientation: IC50 means the concentration at which inhibition is half-maximal.

One experiment has as its system U87MG. Nature of the experiment: WST-1 proliferation assay, U87MG. Type of experiment: cell-based, human. As for the experimental part: (§1) AP-121 was prepared as 5 mM stock solution in distilled sterile water, Temozolomide (TMZ) (Haorui Pharma-Chem, Inc., Edison, N.J.) was prepared as 100 mM in sterile filtrated DMSO; Adriamycin (ADR) (Sigma) was prepared as 1 mM in distilled sterile water; Camptothecin (CTP) (Sigma) was prepared as 10 mM solution in 0.1 N NaOH; Tarceva (Proteinkinase, Germany) was prepared as 5 mM solution in sterile DMSO. All compound stocks were kept at −20° C. 2000 cells were plated in each well of 96-well flat bottom plates, and incubated overnight at 37 °C in 5% CO2. The growth of plated cells was measured by adding […] of WST-1 reagent (Roche Applied Sciences, Germany) to 3 control wells and measuring the absorbance at 650 nm and at 450 nm, respectively, with a SpectraMax250 plate reader. […] After this incubation, VVST-1 reagent was added to the wells and OD650-OD450 values were calculated as before. six wells were assayed for each conditions and standard deviation was determined: all experiments were performed at least three times independently. […] Six different concentrations of each drug were used in combinations index measurements and compared to +/− cells, and compared to controls without compound.
In general terms: Tetrazolium assays rely on reduction of a dye to a coloured formazan, in cell work by metabolically active cells.

Another experiment deals with U118MG. As to the kind of experiment: WST-1 proliferation assay, U118MG. In kind it is cell-based, human. As for the experimental part:
as §1, with “compound. Each combination was repeated 6 times at 2 different time points (24 and 96 hours), each of the above experiments was repeated 3 times to obtain valid results.” for “compound.”

For another experiment, the system named is T98G. Nature of the experiment: WST-1 proliferation assay, T98G. In kind it is cell-based. Particulars: Homo sapiens. The protocol: as §1
Experiment [1] has as its system LNCaP cells grown orthotopically in the prostates of nude mice. Nature of the experiment: LNCaP cells grown orthotopically in the prostates of nude mice (PSA, tumor volume). Type of experiment: in vivo. Particulars: 0-30 mg/kg intraperitoneal injections and concomitant irradiation; dose-dependent effect. As for the experimental part: FIG. 2. Depicts the in vivo effects of 1-O-octadecyl-2-O-methyl-glycero-3-phosphocholine (30 mg/kg body weight/day administered intraperitoneally for 15 days; FIG. 2A), (ionizing) radiation (absorbed dose of 5 Gray units administered on day 7); FIG. 2C), and a combination thereof (FIG. 2B) on LNCaP cells grown orthotopically in the prostates of nude mice (seven mice/group). Tumor growth was assessed via determining the serum level of the prostate-specific antigen (PSA) using a commercially available test kit as well as the tumor volume by means of magnetic resonance imaging. Graphed lines show tumor size in individual mice.
It is known that prostate cancer cell lines express FAS receptor, that some of them are not sensitive to FAS (O. W. Rokhlin et al., Cancer Res. 1997, 57: 1758-68). […]
1-O-octadecyl-2-O-methyl-glycero-3-phosphocholine was administered intraperitoneally in a dose of 30 mg/kg body weight/day administered intraperitoneally for 15 days (FIG. 2A; studies using different routes of administration such as orally or by gavage are currently under way). […] Tumor growth was assessed via determining the serum level of the prostate-specific antigen (PSA) using a commercially available test kit as well as the tumor volume by means of magnetic resonance imaging.

For the next experiment, the system named is A431. Particulars: mean ± SD from three independent experiments, read-out: ED50 values for induction of apoptosis; cited from earlier work.

In the case of `CCCCCCCCCCCCCCCCCCOCC(COP(=O)([O-])OCC[N+](C)(C)C)OC` (racemic) [AP-121, 1-O-octadecyl-2-O-methyl-glycero-3-phosphocholine], the IC50 in the experiment with U87MG (Homo sapiens, U-87 MG) amounted to 8.5 µM; in the experiment with U118MG (Homo sapiens, U-118-MG), 3.6 µM; in the experiment on T98G, 4.1 µM. The EC50 was 6.8 µM with U87MG (Homo sapiens, U-87 MG, single agent or compound mixture as labelled (arrays A2, A1), read-out: ED50 (the source's name)); 4.8 µM with U118MG (Homo sapiens, U-118-MG, single agent or compound mixture as labelled (arrays A2, A1), read-out: ED50 (the source's name)); 15.5 ± 2.9 µM in the experiment on A431. The normalized ED50 (arrays B2, B1) worked out at 1 with U87MG (ratio to the largest value) and 0.71 in the experiment on U118MG (ratio to the largest value). The “PSA (prostate specific antigen) levels” value in experiment [1] was “reduced after few days of treatment”. For the same compound, the tumor size entry in experiment [1] is listed as “shrinkage of the tumor size after one week of treatment”.
